The record followed here is PubChem BioAssay (NCI).

Some test systems named below: COLO 205 colon; HCC-2998 colon; IGROV1 ovarian; MDA-MB-231 breast; NCI-H226 lung; NCI-H460 lung; NCI/ADR-RES ovarian; OVCAR-3 ovarian; RPMI-8226 leukemia; HL-60(TB) leukemia.
Common to all, as to experiment: NCI tumour cell line growth inhibition, 48 h

The structures appear in SMILES notation. Where “and” joins values, the source holds several entries; their conditions need not be identical. Equal values may be shown once.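 Cultured in 96-well plates, cells were exposed to test compound for 48 hours across five concentrations. GI50 = concentration required for 50% inhibition of growth. TGI is the concentration that stops growth completely.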

On to `Clc1ccc(Cl)c(N/N=C\c2c[nH]c3ccccc23)c1`, for which the GI50 in the assay on COLO 205 colon is 14 µM; in the assay with HCC-2998 colon, 13.6 µM; with IGROV1 ovarian, 0.0611 µM; in the assay with MDA-MB-231 breast, 2.05 µM; in the assay on NCI-H226 lung it was 7.99 µM; with NCI-H460 lung, over 100 µM. For the same compound, the GI50 with NCI/ADR-RES ovarian was 15.6 µM; with OVCAR-3 ovarian, 11.4 µM; in the assay with RPMI-8226 leukemia it was 6.16 µM. The TGI with COLO 205 colon was 30.4 µM; with HCC-2998 colon, 29.9 µM; in the assay on IGROV1 ovarian it was 0.623 µM; with MDA-MB-231 breast, 8.07 µM; in the assay with NCI-H226 lung it was 34.3 µM; with NCI-H460 lung it was over 100 µM. In addition, the TGI in the assay on NCI/ADR-RES ovarian was 34.8 µM; in the assay on OVCAR-3 ovarian it was 26.1 µM; in the assay with RPMI-8226 leukemia it was 26.1 µM.

In the case of `CCCCc1ccc2nc(NC(=O)OC)[nH]c2c1`, the GI50 in the assay with COLO 205 colon is 0.038 µM; in the assay with HCC-2998 colon, 0.0966 µM; in the assay with IGROV1 ovarian it was 0.101 µM; in the assay on MDA-MB-231 breast, 0.291 µM; in the assay with NCI-H226 lung it was 0.0429 µM; in the assay on NCI-H460 lung, 0.0378 µM. Moreover, the GI50 in the assay with NCI/ADR-RES ovarian was 0.0311 µM; in the assay on OVCAR-3 ovarian, 0.0228 µM; in the assay on RPMI-8226 leukemia, 0.0331 µM. Moreover, the TGI in the assay on COLO 205 colon is 0.37 µM; with HCC-2998 colon, 3.4 µM; with IGROV1 ovarian, over 78.7 µM; with MDA-MB-231 breast, over 74.7 µM; in the assay with NCI-H226 lung it was 3.32 µM; in the assay on NCI-H460 lung it was 6.17 µM. Besides, the TGI amounted to 0.121 µM with NCI/ADR-RES ovarian and 0.0502 µM in the assay with OVCAR-3 ovarian.

Turning to `COc1ccc(CN2CCc3c(Cl)nc(N)nc3C2=O)c(OC)c1`, the GI50 in the assay with COLO 205 colon is 16.3 µM; in the assay on HCC-2998 colon, 17.3 µM; with HL-60(TB) leukemia, 1.67 µM; in the assay on IGROV1 ovarian, 7.56 µM; in the assay on MDA-MB-231 breast, 14.8 µM; in the assay on NCI-H226 lung it was 18.3 µM. For the same compound, the GI50 was 18.6 µM in the assay on NCI-H460 lung, 27.2 µM in the assay on NCI/ADR-RES ovarian, 15.4 µM in the assay on OVCAR-3 ovarian and 16 µM in the assay on RPMI-8226 leukemia. The TGI with COLO 205 colon amounted to 30.6 µM; with HCC-2998 colon, 31.6 µM; in the assay on HL-60(TB) leukemia, 5.52 µM; in the assay on IGROV1 ovarian it was 26.9 µM; with MDA-MB-231 breast, 30.3 µM; in the assay on NCI-H226 lung, 41.7 µM. Also, the TGI in the assay with NCI-H460 lung was 42.6 µM; in the assay on NCI/ADR-RES ovarian, 87 µM; in the assay with OVCAR-3 ovarian it was 29.8 µM; in the assay with RPMI-8226 leukemia it was 52.7 µM.

As to `O=c1c(Cl)nsnc1Cl`, the TGI was 3.87 µM in the assay with COLO 205 colon; 35.2 µM in the assay on HCC-2998 colon; 32.4 µM in the assay with IGROV1 ovarian; 41.8 µM with MDA-MB-231 breast; 53.2 µM in the assay with NCI-H226 lung; over 73.1 µM in the assay on NCI-H460 lung. Further, the TGI was over 100 µM in the assay with NCI/ADR-RES ovarian, 17.1 µM in the assay on OVCAR-3 ovarian and 5.22 µM with RPMI-8226 leukemia.

On to `FC(F)(F)c1ccc2nc(-c3nc(-c4ccccc4)n4ccccc34)[nH]c2c1`, for which the GI50 was 4.88 µM with COLO 205 colon; 5.98 µM with HCC-2998 colon; 27.8 µM with HL-60(TB) leukemia; 4.03 µM with IGROV1 ovarian; 2.04 µM in the assay with MDA-MB-231 breast; 10.9 µM with NCI-H226 lung. Moreover, the GI50 was 2.93 µM in the assay on NCI-H460 lung, 3.71 µM with NCI/ADR-RES ovarian, 4.08 µM in the assay on OVCAR-3 ovarian and 3.84 µM with RPMI-8226 leukemia. In addition, the TGI in the assay with COLO 205 colon was over 100 µM; in the assay on HCC-2998 colon, 22.4 µM; in the assay on HL-60(TB) leukemia, over 100 µM; in the assay on IGROV1 ovarian, 20.5 µM; with MDA-MB-231 breast, 5.39 µM; in the assay on NCI-H226 lung, 32.9 µM. Besides, the TGI with NCI-H460 lung was 11.2 µM; in the assay on NCI/ADR-RES ovarian it was 38.5 µM; in the assay on OVCAR-3 ovarian, 16.3 µM; in the assay on RPMI-8226 leukemia, 36.9 µM.

Turning to `O=C(Nc1ccc(Cl)c(Cl)c1)Nc1ccc(Cl)c([N+](=O)[O-])c1`, the GI50 in the assay with COLO 205 colon is 1.12 µM; in the assay on HCC-2998 colon, 1.22 µM; in the assay with HL-60(TB) leukemia, 0.947 µM; in the assay with IGROV1 ovarian, 1.61 µM; in the assay on MDA-MB-231 breast, 2.93 µM; in the assay with NCI-H226 lung it was 1.3 µM. The GI50 is 0.888 µM in the assay with NCI-H460 lung, 1.02 µM with NCI/ADR-RES ovarian, 0.889 µM with OVCAR-3 ovarian and 0.895 µM in the assay on RPMI-8226 leukemia. The TGI in the assay on COLO 205 colon came out at 4.9 µM; in the assay with HCC-2998 colon it was 4.58 µM; in the assay on HL-60(TB) leukemia, 14.6 µM; in the assay with IGROV1 ovarian, 6.4 µM; in the assay with MDA-MB-231 breast, 7.09 µM; with NCI-H226 lung it was 5.54 µM. The TGI with NCI-H460 lung turned out to be 3.03 µM; in the assay on NCI/ADR-RES ovarian it was 6.09 µM; with OVCAR-3 ovarian, 3.66 µM; with RPMI-8226 leukemia it was 9.47 µM.

With `Cc1cc(O)c2c(c1)C[C@@H](O)C1=C2C(=O)c2c(O)ccc(OC3CC(O)C(OC4CC(OC5CCC(OC6CC(O)C(OC7CC(OC8CCC(O)C(C)O8)C(O)C(C)O7)C(C)O6)C(C)O5)C(O)C(C)O4)C(C)O3)c2C1=O` (some centres not stated), the GI50 is 0.539 µM in the assay with COLO 205 colon; 1.76 µM and 1.45 µM in the assay on HCC-2998 colon; 0.112 µM in the assay on HL-60(TB) leukemia; 1.14 µM with IGROV1 ovarian; 0.433 µM and 0.251 µM in the assay on MDA-MB-231 breast; 1.48 µM in the assay on NCI-H226 lung. Besides, the GI50 is 3.01 µM and 1.8 µM in the assay on NCI/ADR-RES ovarian; 0.223 µM with OVCAR-3 ovarian; 0.321 µM and 0.483 µM with RPMI-8226 leukemia. The TGI in the assay on HL-60(TB) leukemia is 0.134 µM and 0.291 µM; in the assay on IGROV1 ovarian, 0.344 µM and 2.47 µM; with MDA-MB-231 breast, 0.259 µM and 1.49 µM and 0.549 µM; in the assay on NCI-H226 lung, 0.461 µM and 3.07 µM; in the assay with NCI-H460 lung, 0.485 µM; in the assay with OVCAR-3 ovarian, 0.138 µM and 0.765 µM.

Consider `Cc1cc2c(-c3nc4ccccc4[nH]3)c(O)c(O)cc2c(O)c1-c1c(C)cc2c(-c3nc4ccccc4[nH]3)c(O)c(O)cc2c1O`, for which the GI50 is 0.0231 µM with COLO 205 colon; 0.0362 µM with HCC-2998 colon; 0.0328 µM in the assay with HL-60(TB) leukemia; 0.0416 µM with IGROV1 ovarian; 0.0835 µM in the assay on MDA-MB-231 breast; 0.0563 µM in the assay on NCI-H226 lung. Moreover, the values for the GI50 with NCI-H460 lung, with OVCAR-3 ovarian and with RPMI-8226 leukemia were 0.00751 µM, 0.0411 µM and 0.0323 µM, respectively. In addition, the TGI with COLO 205 colon was 0.913 µM; in the assay with HCC-2998 colon, 8.65 µM; in the assay on HL-60(TB) leukemia, over 50 µM; in the assay with IGROV1 ovarian, over 23.1 µM; in the assay on MDA-MB-231 breast, over 38.9 µM; in the assay on NCI-H226 lung, 0.827 µM. Further, the TGI was 0.112 µM with NCI-H460 lung, 15.1 µM in the assay with OVCAR-3 ovarian and 22.3 µM with RPMI-8226 leukemia.
